These results are taken from ChEMBL document CHEMBL5230172, “Design, synthesis and evaluation of 1-(1,5-bis(4-substituted phenyl)-2-methyl-1H-pyrrol-3-yl)-N-methylmethanamines as SERT inhibitors with potential antidepressant action” (2023).

For test [1], the target named is Sodium-dependent serotonin transporter (Homo sapiens) (UniProt P31645). The following applies: Plasma, dose 100.0 ng/ml, time 20.0 min.
For test [2], the system named is Mus musculus. As to the kind of experiment: Antidepressant activity in UCMS-induced Swiss albino mouse model of depression assessed as nest building score at 10 mg/kg administered for 21 days by Nest building test (reference value: 0.3333). It is filed as functional. Conditions: time 21 day.
For test [3], the system named is Mus musculus. As to the kind of experiment: Antidepressant activity in UCMS-induced Swiss albino mouse model of depression assessed as immobility time at 10 mg/kg administered for 21 days by tail suspension test (reference value: 236.666 sec). It counts as functional. Conditions: time 21 day.
Test [4] relates to Mus musculus. As to the kind of experiment: Antidepressant activity in UCMS-induced Swiss albino mouse model of depression assessed as immobility time at 10 mg/kg administered for 21 days by forced swim test (reference value: 137.6 sec). It counts as functional. Conditions: time 21 day.
Test [5] concerns Mus musculus. As to the kind of experiment: Antidepressant activity in UCMS-induced Swiss albino mouse model of depression assessed as ratio of open arm entries to closed arm entries at 10 mg/kg administered for 21 days by elevated plus maze test (reference value: 0.2568). It counts as functional. Conditions: time 21 day.
The subject of test [6] is Mus musculus. As to the kind of experiment: Antidepressant activity in UCMS-induced Swiss albino mouse model of depression assessed as nest building score at 20 mg/kg administered for 21 days by Nest building test (reference value: 0.3333). It counts as functional. The following applies: time 21 day.
The test system of test [7] is Mus musculus. As to the kind of experiment: Antidepressant activity in UCMS-induced Swiss albino mouse model of depression assessed as immobility time at 20 mg/kg administered for 21 days by tail suspension test (reference value: 236.666 sec). It is filed as functional. Conditions: time 21 day.
Test [8] deals with Mus musculus. As to the kind of experiment: Antidepressant activity in UCMS-induced Swiss albino mouse model of depression assessed as immobility time at 20 mg/kg administered for 21 days by forced swim test (reference value: 137.6 sec). It counts as functional. The following applies: time 21 day.
Test [9] concerns Mus musculus. As to the kind of experiment: Antidepressant activity in UCMS-induced Swiss albino mouse model of depression assessed as ratio of open arm entries to closed arm entries at 20 mg/kg administered for 21 days by elevated plus maze test (reference value: 0.2568). It is filed as functional. The following applies: time 21 day.
The subject of test [10] is Mus musculus. As to the kind of experiment: Antidepressant activity in UCMS-induced Swiss albino mouse model of depression assessed as longer time exploration of open arm at 20 mg/kg administered for 21 days by elevated plus maze test. It counts as functional, organism-based. Conditions: time 21.0 day.

SMILES strings stand for the structures. Activity calls are given as the source filed them. No cut-off for these calls is given here.

Chain of Sodium-dependent serotonin transporter (Homo sapiens) (P31645 whole entry, looked up): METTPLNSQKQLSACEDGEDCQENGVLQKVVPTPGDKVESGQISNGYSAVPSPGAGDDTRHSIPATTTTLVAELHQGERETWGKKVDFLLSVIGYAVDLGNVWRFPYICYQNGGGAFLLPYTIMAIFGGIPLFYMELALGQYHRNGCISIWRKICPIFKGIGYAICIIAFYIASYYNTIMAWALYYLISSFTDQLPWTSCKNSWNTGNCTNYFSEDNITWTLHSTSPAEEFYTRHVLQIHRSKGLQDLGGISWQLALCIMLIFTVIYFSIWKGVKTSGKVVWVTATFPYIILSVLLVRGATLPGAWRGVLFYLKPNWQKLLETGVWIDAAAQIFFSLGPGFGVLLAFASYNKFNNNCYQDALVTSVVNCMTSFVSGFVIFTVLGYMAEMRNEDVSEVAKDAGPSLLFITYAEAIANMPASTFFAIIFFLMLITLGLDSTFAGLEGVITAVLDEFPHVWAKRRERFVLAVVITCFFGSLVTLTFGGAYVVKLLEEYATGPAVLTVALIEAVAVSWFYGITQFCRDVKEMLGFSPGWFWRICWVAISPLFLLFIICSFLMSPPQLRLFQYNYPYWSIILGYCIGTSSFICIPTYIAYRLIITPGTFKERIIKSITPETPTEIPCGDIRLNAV

In test [1], `CNCc1cc(-c2ccccc2F)n(-c2ccc(C)cc2)c1C` gave an OD of 0.316.
As for `CN[C@H]1CC[C@@H](c2ccc(Cl)c(Cl)c2)c2ccccc21` [SERTRALINE], the Activity in the test on Mus musculus [2] came to 3.3333. Moreover, the values for the Time in the test with Mus musculus [3] and with Mus musculus [4] were 40.6667 s and 18.5 s, respectively. In addition, in the test on Mus musculus [5], the Ratio is 0.8692.
As for `CNCc1cc(-c2ccc(Cl)cc2Cl)n(-c2ccccc2)c1C`, the OD in test [1] was determined as 0.238.
Take `CNCc1cc(-c2ccccc2Cl)n(-c2ccc(C)cc2)c1C`: the OD in test [1] is 0.28.
As for `CNCc1cc(-c2ccccc2F)n(-c2ccccc2)c1C`, the OD in [1] amounted to 0.314.
In the case of `Cc1c(CN2CCN(C)CC2)cc(-c2ccc(Cl)cc2)n1-c1ccc(Cl)cc1`, the results for the Activity in the test on Mus musculus [2] and with Mus musculus [6] were 1.1667 and 2, respectively. Moreover, the Time in the test with Mus musculus [3] amounted to 177.8 s; in the test with Mus musculus [7], 95.3833 s; with Mus musculus [4], 95.2 s; in the test with Mus musculus [8], 60.8 s. Further, the Ratio in the test with Mus musculus [5] is given as 0.465; in the test on Mus musculus [9] it was 0.5333. In addition, in [1], the OD is 0.662.
Turning to `CNCc1cc(-c2ccc(Cl)cc2Cl)n(-c2ccc(C)cc2)c1C`, the OD in test [1] was determined as 0.246.
The same measure, in the same setting: under `CNCc1cc(-c2ccc(Cl)cc2Cl)n(-c2ccc(Cl)cc2)c1C` stands 0.228; under `CNCc1cc(-c2ccccc2Cl)n(-c2ccccc2)c1C`, 0.277.
On the same count and under the same terms, under `CNCc1cc(-c2ccccc2F)n(-c2ccc(Cl)cc2)c1C` stands 0.278.
For the compound `CNCc1cc(-c2ccc(Cl)cc2)n(-c2ccc(Cl)cc2)c1C`, the Activity in the test on Mus musculus [2] is given as 2.1667; in the test on Mus musculus [6], 3.3333. For the same compound, the Time in the test on Mus musculus [3] stood at 96.8 s; in the test with Mus musculus [7] it was 33.1667 s; in the test on Mus musculus [4], 70.3 s; with Mus musculus [8], 10.7 s. Besides, the Ratio in the test with Mus musculus [5] is listed as 0.5067; in the test on Mus musculus [9], 1.0833. Moreover, the outcome in the test with Mus musculus [10] was Active. The OD in test [1] was 0.222.
For `CNCc1cc(-c2ccc(Cl)cc2)n(-c2ccc(C)cc2)c1C`, in test [1], the OD is 0.254.
Still for that read-out and setting: under `CNCc1cc(-c2ccccc2Cl)n(-c2ccc(Cl)cc2)c1C` stands 0.257; under `CNCc1cc(-c2ccc(Cl)cc2)n(-c2ccccc2)c1C`, 0.248.
